Results: article PMC11995216, “End-to-End Backbone Cyclization Enhances Passive Permeability of bRo5 Oligomeric Depsipeptides with Nonlinear Size Dependence” (ACS Medicinal Chemistry Letters, 2025)
Several values for one entry are separate records, joined by “and”; a condition that tells them apart may be missing. Equal entries are not always repeated. Where two headings read alike, the source gives them in different places. Starred links: 1 amine or outer side, 2 acyl side, 3 side chain; linkers in the order of their positions; H or OH if unused. Non-standard residues stand in square brackets, D forms with d. Residues, ends and D or L forms follow the SMILES beside them. *: point of attachment. X1 = CCCCC[C@H](O[*:1])C(=O)[*:2]; Ahp(2) = CCCCC[C@H](N)C(=O)O; dNMeA = CN[C@H](C)C(=O)O; OBn = c1ccc(CO*)cc1

Tests used:
PAMPA [1] = details: UV detection
[2] = calculated using Supplement Equation 1, UV detection
[3] = UV detection
[4] = initial concentration 500 uM, UV detection
[5] = initial concentration 500 uM, UV detection; remark: listed apart in the source
in vitro = details: PAMPA
PAMPA [6] = details: UV detection, initial concentration 500 uM
[7] = PAMPA, 500 uM

CCCCC[C@H](OC(=O)[C@@H](C)N(C)C(=O)[C@H](CCCCC)OC(=O)[C@@H](C)N(C)C(=O)OC(C)(C)C)C(=O)OCc1ccccc1 [Compound L1.2]
Papp (PAMPA [1]; Papp (x 10^-6 cm/s) / experiment 1): 3.2 ×10⁻⁶ cm/s | Papp (PAMPA [1]; Papp (x 10^-6 cm/s) / experiment 2): 3.8 ×10⁻⁶ cm/s | Papp (PAMPA [1]; Papp (x 10^-6 cm/s) / experiment 3): 3.8 ×10⁻⁶ cm/s | Papp (PAMPA [1]; Papp (x 10^-6 cm/s) / experiment 4): 3.7 ×10⁻⁶ cm/s | Papp (PAMPA [1]; Papp (x 10^-6 cm/s) / experiment 5): 3.9 ×10⁻⁶ cm/s | Papp (PAMPA [1]; Papp (x 10^-6 cm/s) / experiment 6): 3.4 ×10⁻⁶ cm/s | Papp (PAMPA [1]; Papp (x 10^-6 cm/s) / experiment 7): 3.9 ×10⁻⁶ cm/s | Papp (PAMPA [1]; Papp (x 10^-6 cm/s) / experiment 8): 3.3 ×10⁻⁶ cm/s | Papp (PAMPA [1]; Papp (x 10^-6 cm/s) / experiment 9): 3.7 ×10⁻⁶ cm/s | Papp (PAMPA [1]; Papp (x 10^-6 cm/s) / experiment 10): 3.6 ×10⁻⁶ cm/s | %T ([2]; Well 1 / %T, Well 1): 0.43% and 0.47% | %T ([2]; Well 2 / %T, Well 2): 0.48% and 0.46% | %T ([2]; Well 3 / %T, Well 3): 0.48% and 0.47% | %T ([2]; Well 4 / %T, Well 4): 0.48% and 0.49% | %T ([2]; Well 5 / %T, Well 5): 0.5% and 0.49% | % recovery ([3]; Well 1 / %R, Well 1): 93% | % recovery ([3]; Well 2 / %R, Well 2): 96% | % recovery ([3]; Well 3 / %R, Well 3): 85% and 90% | % recovery ([3]; Well 4 / %R, Well 4): 84% and 85% | % recovery ([3]; Well 5 / %R, Well 5): 82% | acceptor concentration after incubation ([4]; Well 1 / [acc], Well 1, standard curve): 77 µM | acceptor concentration after incubation ([4]; Well 2 / [acc], Well 2, standard curve): 81.5 µM | acceptor concentration after incubation ([4]; Well 3 / [acc], Well 3, standard curve): 79.5 µM | acceptor concentration after incubation ([4]; Well 4 / [acc], Well 4, standard curve): 78.8 µM | acceptor concentration after incubation ([4]; Well 5 / [acc], Well 5, standard curve): 81.8 µM | donor concentration after incubation ([5]; Well 1 / [donor], Well 1, standard curve): 391 µM and 364 µM | donor concentration after incubation ([5]; Well 2 / [donor], Well 2, standard curve): 361 µM and 396 µM | donor concentration after incubation ([5]; Well 3 / [donor], Well 3, standard curve): 348 µM and 368 µM | donor concentration after incubation ([5]; Well 4 / [donor], Well 4, standard curve): 345 µM and 348 µM | donor concentration after incubation ([5]; Well 5 / [donor], Well 5, standard curve): 331 µM and 358 µM | Papp at 500 uM (in vitro; LogPapp): 1.82 ×10⁻⁶ cm/s | Papp at 500 uM (in vitro; Papp): 3.44 ± 0.33 ×10⁻⁶ cm/s | Acceptor Concentration (PAMPA [6]; Acceptor Concentration (uM) / experiment 1): 72 µM | Acceptor Concentration (PAMPA [6]; Acceptor Concentration (uM) / experiment 2): 80.6 µM | Acceptor Concentration (PAMPA [6]; Acceptor Concentration (uM) / experiment 3): 77.4 µM | Acceptor Concentration (PAMPA [6]; Acceptor Concentration (uM) / experiment 4): 75.2 µM | Acceptor Concentration (PAMPA [6]; Acceptor Concentration (uM) / experiment 5): 77.1 µM | Acceptor Concentration (PAMPA [6]; Acceptor Concentration (uM) / experiment 6): 90.3 µM | Acceptor Concentration (PAMPA [6]; Acceptor Concentration (uM) / experiment 7): 86.9 µM | Acceptor Concentration (PAMPA [6]; Acceptor Concentration (uM) / experiment 8): 80.4 µM | Acceptor Concentration (PAMPA [6]; Acceptor Concentration (uM) / experiment 9): 87.3 µM | Acceptor Concentration (PAMPA [6]; Acceptor Concentration (uM) / experiment 10): 83.7 µM | Δ % diffusion [7]: ↑5%

CCCCC[C@H](NC(=O)[C@@H](C)N(C)C(=O)OC(C)(C)C)C(=O)N(C)[C@H](C)C(=O)N[C@H](CCCCC)C(=O)N(C)[C@H](C)C(=O)O[C@@H](CCCCC)C(=O)N(C)[C@H](C)C(=O)O[C@@H](CCCCC)C(=O)OCc1ccccc1 (stereo in doubt) [Compound L2.2]
Papp (PAMPA [1]; Papp (x 10^-6 cm/s) / [row 1]): 2.7 ×10⁻⁶ cm/s | Papp (PAMPA [1]; Papp (x 10^-6 cm/s) / [row 2]): 2.86 ×10⁻⁶ cm/s | Papp (PAMPA [1]; Papp (x 10^-6 cm/s) / [row 3]): 3.2 ×10⁻⁶ cm/s | Papp (PAMPA [1]; Papp (x 10^-6 cm/s) / [row 4]): 2.91 ×10⁻⁶ cm/s | Papp (PAMPA [1]; Papp (x 10^-6 cm/s) / [row 5]): 2.54 ×10⁻⁶ cm/s | Papp (PAMPA [1]; Papp (x 10^-6 cm/s) / [row 6]): 2.78 ×10⁻⁶ cm/s | Papp (PAMPA [1]; Papp (x 10^-6 cm/s) / [row 7]): 2.8 ×10⁻⁶ cm/s | Papp (PAMPA [1]; Papp (x 10^-6 cm/s) / [row 8]): 2.55 ×10⁻⁶ cm/s | Papp (PAMPA [1]; Papp (x 10^-6 cm/s) / [row 9]): 2.9 ×10⁻⁶ cm/s | Papp (PAMPA [1]; Papp (x 10^-6 cm/s) / [row 10]): 2.68 ×10⁻⁶ cm/s | %T ([2]; Well 1 / %T, Well 1): 0.34% and 0.4% | %T ([2]; Well 2 / %T, Well 2): 0.4% | %T ([2]; Well 3 / %T, Well 3): 0.36% and 0.39% | %T ([2]; Well 4 / %T, Well 4): 0.36% and 0.38% | %T ([2]; Well 5 / %T, Well 5): 0.38% and 0.4% | % recovery ([3]; Well 1 / %R, Well 1): 95% | % recovery ([3]; Well 2 / %R, Well 2): 91% and 89% | % recovery ([3]; Well 3 / %R, Well 3): 91% | % recovery ([3]; Well 4 / %R, Well 4): 98% and 90% | % recovery ([3]; Well 5 / %R, Well 5): 89% | acceptor concentration after incubation ([4]; Well 1 / [acc], Well 1): 70.2 µM | donor concentration after incubation ([5]; Well 1 / [donor], Well 1): 406 µM and 404 µM | donor concentration after incubation ([5]; Well 2 / [donor], Well 2): 384 µM and 380 µM | donor concentration after incubation ([5]; Well 3 / [donor], Well 3): 381 µM and 392 µM | donor concentration after incubation ([5]; Well 4 / [donor], Well 4): 416 µM and 380 µM | donor concentration after incubation ([5]; Well 5 / [donor], Well 5): 398 µM and 382 µM | Papp at 500 uM (in vitro; Papp): 2.79 ± 0.19 ×10⁻⁶ cm/s | Acceptor Concentration (PAMPA [6]; Acceptor Concentration (uM) / [row 1]): 68.3 µM | Acceptor Concentration (PAMPA [6]; Acceptor Concentration (uM) / [row 2]): 68.9 µM | Acceptor Concentration (PAMPA [6]; Acceptor Concentration (uM) / [row 3]): 76.7 µM | Acceptor Concentration (PAMPA [6]; Acceptor Concentration (uM) / [row 4]): 75.8 µM | Acceptor Concentration (PAMPA [6]; Acceptor Concentration (uM) / [row 5]): 62.9 µM | Acceptor Concentration (PAMPA [6]; Acceptor Concentration (uM) / [row 6]): 70.1 µM | Acceptor Concentration (PAMPA [6]; Acceptor Concentration (uM) / [row 7]): 66.3 µM | Acceptor Concentration (PAMPA [6]; Acceptor Concentration (uM) / [row 8]): 62.1 µM | Acceptor Concentration (PAMPA [6]; Acceptor Concentration (uM) / [row 9]): 69 µM | Acceptor Concentration (PAMPA [6]; Acceptor Concentration (uM) / [row 10]): 63.9 µM | LogPapp [7]: -5.55 ± 0.03 | Δ % diffusion [7]: ↑17%

CCCCC[C@H](NC(=O)[C@@H](C)N(C)C(=O)[C@H](CCCCC)NC(=O)[C@@H](C)N(C)C(=O)[C@H](CCCCC)NC(=O)[C@@H](C)N(C)C(=O)[C@H](CCCCC)OC(=O)[C@@H](C)NC)C(=O)OCc1ccccc1 (H-[dNMeA][X1][dNMeA][Ahp(2)][dNMeA][Ahp(2)][dNMeA][Ahp(2)]-OBn)
%T ([2]; Well 1 / %T, Well 1): 0.52% and 0.53% | %T ([2]; Well 2 / %T, Well 2): 0.54% | %T ([2]; Well 3 / %T, Well 3): 0.53% and 0.5% | %T ([2]; Well 4 / %T, Well 4): 0.5% and 0.52% | %T ([2]; Well 5 / %T, Well 5): 0.53% and 0.52% | % recovery ([3]; Well 1 / %R, Well 1): 91% and 92% | % recovery ([3]; Well 2 / %R, Well 2): 87% and 92% | % recovery ([3]; Well 3 / %R, Well 3): 90% | % recovery ([3]; Well 4 / %R, Well 4): 88% and 86% | % recovery ([3]; Well 5 / %R, Well 5): 87% and 88% | acceptor concentration after incubation ([4]; Well 1 / [acc], Well 1): 56 µM and 61.7 µM | acceptor concentration after incubation ([4]; Well 2 / [acc], Well 2): 58.6 µM and 63.1 µM | acceptor concentration after incubation ([4]; Well 3 / [acc], Well 3): 59.5 µM and 60.4 µM | acceptor concentration after incubation ([4]; Well 4 / [acc], Well 4): 58.3 µM and 60.3 µM | acceptor concentration after incubation ([4]; Well 5 / [acc], Well 5): 60.6 µM and 61.4 µM | donor concentration after incubation ([5]; Well 1 / [donor], Well 1): 396 µM and 397 µM | donor concentration after incubation ([5]; Well 2 / [donor], Well 2): 375 µM and 395 µM | donor concentration after incubation ([5]; Well 3 / [donor], Well 3): 387 µM and 374 µM | donor concentration after incubation ([5]; Well 4 / [donor], Well 4): 382 µM and 368 µM | donor concentration after incubation ([5]; Well 5 / [donor], Well 5): 376 µM and 377 µM
